Data as given in PMC4445002, “Efficient inhibition of tumor angiogenesis and growth by a synthetic peptide blocking S100A4-methionine aminopeptidase 2 interaction” (Molecular Therapy. Methods & Clinical Development, 2015).

Columns and labels:
[1] = test system: PC-3M-Luc tumors; assay: Tumor angiogenesis (microvessel density, CD31 staining) in PC-3M-Luc xenografts; assay type: in vivo, human tumor in athymic nude mice; details: single intratumoral injection of 100 μg peptide in atelocollagen, tumors dissected three days after
Method: Figure 5 Inhibition of tumor angiogenesis and tumor growth of human prostate cancer cells by the NBD peptide. The peptide/atelocollagen was injected into the subcutaneous tumors on day 3 after inoculation of PC-3M-Luc cells. Atelocollagen alone was injected as controls. (a) Microvessel density. Anti-CD31-antibody staining was used to detect angiogenesis. Arrows show microvessels. The images were digitally processed for assessment of angiogenesis. (b) Inhibition of tumor growth by peptide delivery in vivo. Representative bioluminescent images of nude are shown. L, tumors treated with the CBD peptide; R, tumors treated with the NBD peptide. (c) The photon count of the bioluminescence is shown. Data represent the mean ± SD. The total number of animals is 7 in two independent experiments.
The peptide/atelocollagen complex was prepared by mixing equal volumes of atelocollagen (0.1% in PBS at pH 7.4) and peptide solution (1 mg/ml) with rotation for 30 minutes at 4 °C. The final concentration of atelocollagen was 0.5%. […] Tumor growth was assessed through peptide/atelocollagen complex administration to mice 3 days after the subcutaneous inoculation of PC-3M-Luc cells. Mice were monitored by bioluminescent imaging 14 days after the injection of the peptide/atelocollagen complex. […]

[2] = test system: NMIIA (Ser1943) in MSS31 cells; assay: NMIIA Ser1943 phosphorylation by western blot; assay type: cell-based, mouse; details: 5 μg/well, 18 hours
Method: Figure 6 Stimulation of NMIIA phosphorylation and filament assembly by the NBD peptide. MSS31 cells incubated with atelocollagen alone or the peptide/atelocollagen complexes were subjected to western blot analysis and immunofluorescent staining. (a) Western blot analysis of NMIIA phosphorylation. Total cellular proteins were subjected to immunoblot analysis. The band intensity of p-NMIIA relative to that of total NMIIA was measured using ImageJ software and normalized to control cells. (b) NMIIA assembly. MSS31 cells were simultaneously incubated with rabbit polyclonal anti-S100A4 antibody and mouse monoclonal anti-NMIIA antibody followed by Alexa Fluor 488-conjugated goat antirabbit IgG and Alexa Fluor 594-conjugated goat antimouse IgG. Nuclei were stained with DAPI. Scale bars: 50 μm. (c) Blockade of S100A4-NMIIA interaction by the NBD peptide. MSS31 cells were immunostained as in a. White arrows and yellow arrows indicate colocalized areas and independently localized areas of S100A4 and NMIIA, respectively. Bars: 20 μm. TEXT PRINTED IN THE PICTURE: (a) NBD: p-NMIIA/total NMIIA: 1.78 | (a) CBD: p-NMIIA/total NMIIA: 0.66 […]

[3] = test system: NMIIA in MSS31 cells; assay: NMIIA filament assembly and S100A4-NMIIA colocalization by immunofluorescence; assay type: cell-based, mouse; details: atelocollagen complex, 5 μg/well, 18 hours
Method: Figure 6 Stimulation of NMIIA phosphorylation and filament assembly by the NBD peptide. MSS31 cells incubated with atelocollagen alone or the peptide/atelocollagen complexes were subjected to western blot analysis and immunofluorescent staining. (a) Western blot analysis of NMIIA phosphorylation. Total cellular proteins were subjected to immunoblot analysis. The band intensity of p-NMIIA relative to that of total NMIIA was measured using ImageJ software and normalized to control cells. (b) NMIIA assembly. MSS31 cells were simultaneously incubated with rabbit polyclonal anti-S100A4 antibody and mouse monoclonal anti-NMIIA antibody followed by Alexa Fluor 488-conjugated goat antirabbit IgG and Alexa Fluor 594-conjugated goat antimouse IgG. Nuclei were stained with DAPI. Scale bars: 50 μm. (c) Blockade of S100A4-NMIIA interaction by the NBD peptide. MSS31 cells were immunostained as in a. White arrows and yellow arrows indicate colocalized areas and independently localized areas of S100A4 and NMIIA, respectively. Bars: 20 μm. TEXT PRINTED IN THE PICTURE: (a) NBD: p-NMIIA/total NMIIA: 1.78 | (a) CBD: p-NMIIA/total NMIIA: 0.66
MSS31 cells cultured in six-well plates were incubated with 5 μg/well of the NBD or the CBD peptide/atelocollagen complex or atelocollagen alone for 18 hours in Culture Slides (4 wells, BD Falcon) and were washed three times with DPBS and fixed for 10 minutes at 4 °C with 4% formaldehyde in DPBS. After permeabilizing with 0.5% Triton X-100 in DPBS for 4 minutes, the cells were treated with 3% bovine serum albumin in DPBS containing 0.1% glycine for 1 hour to block nonspecific binding sites. After washing with DPBS, the cells were incubated for 1 hour with primary antibodies, rinsed, and then stained with secondary antibodies. The primary antibodies used were polyclonal anti-S100A4, monoclonal anti-NMIIA antibody, monoclonal antivinculin antibody and polyclonal anti-integrin β1 antibody. The secondary antibody was Alexa Fluor 488-conjugated goat antirabbit IgG (Invitrogen) or Alexa Fluor 594-conjugated goat antimouse IgG (Invitrogen). […]

NBD: N-terminal 39 amino acid sequence of SBD, from Arg170 to Ileu208; corresponding to MetAP2 (170–208) (REAAEAHRQVRKYVMSWIKPGMTMIEICEKLEDCSRKLI)
tumor angiogenesis [1]: severely impaired
Ser1943 phosphorylation of NMIIA ([2]; atelocollagen complex): enhanced Ser1943 phosphorylation of NMIIA
p-NMIIA/total NMIIA ([2]; band intensity, normalized to control cells (atelocollagen alone)): 1.78
NMIIA filament assembly [3]: stimulated filament assembly in MSS31 cells
colocalization of S100A4 and NMIIA [3]: the majority of S100A4 was not colocalized with NMIIA filaments
distribution of NMIIA filaments [3]: evenly distributed throughout the cells and showed no polarization
